From ChEMBL document CHEMBL4339189, “Dissymmetric pyridyl-substituted 3,5-bis(arylidene)-4-piperidones as anti-hepatoma agents by inhibiting NF-κB pathway activation” (Eur J Med Chem, 2019)
pIC50: −log10 of the molar value. The source made the active and inactive calls. The calls are words filed in the database; no cut-off is given here.

What was measured:
[1] = biological target: T1, NF-kappa-B inhibitor alpha (Mus musculus) (UniProt Q9Z1E3); test: Inhibition of NFkappaB signalling activation in mouse RAW264.7 cells assessed as reduction in LPS-induced IkBalpha phosphorylation at 1 to 4 uM incubated for 2 hrs after pre-incubation with LPS for 15 mins by Western blot analysis; assay type: cell-based
T1 sequence (whole entry): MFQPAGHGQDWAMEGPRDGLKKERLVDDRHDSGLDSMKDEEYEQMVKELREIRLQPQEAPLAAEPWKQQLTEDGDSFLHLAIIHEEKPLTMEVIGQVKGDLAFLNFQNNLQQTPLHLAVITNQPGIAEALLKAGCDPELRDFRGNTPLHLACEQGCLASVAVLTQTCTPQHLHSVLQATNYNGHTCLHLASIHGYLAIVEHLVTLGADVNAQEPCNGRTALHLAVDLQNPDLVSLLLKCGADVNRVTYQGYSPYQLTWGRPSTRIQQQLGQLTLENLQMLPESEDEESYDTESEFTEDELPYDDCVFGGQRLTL

HepG2 [2] = test: Induction of apoptosis in human HepG2 cells assessed as increase in apoptotic cell population at 2.0 uM incubated for 24 hrs by Annexin V-FITC/propidium iodide staining based flow cytometry relative to control; assay type: functional
HepG2 [3] = test: Induction of apoptosis in human HepG2 cells xenografted in Balb/c nude mouse assessed as reduction in Bcl-2 protein expression at 10 mg/kg, ip administered every 2 days for 20 days and measured every 2 days by immunohistochemistry; assay type: functional, organism-based
RAW264.7 = test: Cytotoxicity against mouse RAW264.7 cells assessed as reduction in cell viability at 6.0 uM incubated for 24 hrs by MTT assay; assay type: cell-based; details: raw264.7, 24 h
HepG2 [4] = test: Antitumor activity against human HepG2 cells xenografted in Balb/c nude mouse assessed as induction of wrinkled abnormalities on cell morphology at 10 mg/kg, ip administered every 2 days for 20 days and measured every 2 days by H and E staining based assay; assay type: functional, organism-based
SMMC-7721 [5] = test: Induction of apoptosis in human SMMC7721 cells assessed as increase in apoptotic cell population at 4.0 uM incubated for 24 hrs by Annexin V-FITC/propidium iodide staining based flow cytometry; assay type: functional
QGY-7703 [6] = test: Induction of apoptosis in human QGY7703 cells assessed as increase in apoptotic cell population at 4.0 uM incubated for 24 hrs by Annexin V-FITC/propidium iodide staining based flow cytometry; assay type: functional
[7] = Cytotoxicity against human HHL5 cells assessed as reduction in cell viability incubated for 24 hrs by MTT assay; assay type: cell-based; details: HHL-5, 24 h
HepG2 [8] = test: Antitumor activity against human HepG2 cells xenografted in Balb/c nude mouse assessed as tumor volume level at 10 mg/kg, ip administered every 2 days for 20 days and measured every 2 days; assay type: functional
HepG2 [9] = test: Antitumor activity against human HepG2 cells xenografted in Balb/c nude mouse assessed as induction of incomplete cells at 10 mg/kg, ip administered every 2 days for 20 days and measured every 2 days by H and E staining based assay; assay type: functional, organism-based
SMMC-7721 [10] = test: Induction of apoptosis in human SMMC7721 cells assessed as increase in apoptotic cell population at 4.0 uM incubated for 24 hrs by Annexin V-FITC/propidium iodide staining based flow cytometry relative to control; assay type: functional
QGY-7703 [11] = test: Cytotoxicity against human QGY7703 cells assessed as reduction in cell viability incubated for 24 hrs by MTT assay; assay type: functional, cell-based
HepG2 [12] = test: Induction of apoptosis in human HepG2 cells xenografted in Balb/c nude mouse assessed as reduction in Bcl-2 protein expression at 1 mg/kg, ip administered every 2 days for 20 days and measured every 2 days by immunohistochemistry; assay type: functional, organism-based
[13] = biological target: Transcription factor p65 (Mus musculus) (UniProt Q04207); test: Inhibition of NFkappaB activation in mouse RAW264.7 cells assessed as reduction in LPS-induced p65 phosphorylation at 1 to 4 uM incubated for 2 hrs after pre-incubation with LPS for 15 mins by Western blot analysis; assay type: cell-based
HepG2 [14] = test: Induction of apoptosis in human HepG2 cells assessed as increase in apoptotic cell population at 4.0 uM incubated for 24 hrs by Annexin V-FITC/propidium iodide staining based flow cytometry relative to control; assay type: functional
HepG2 [15] = test: Induction of apoptosis in human HepG2 cells xenografted in Balb/c nude mouse assessed as reduction in Bcl-2 protein expression at 0.1 mg/kg, ip administered every 2 days for 20 days and measured every 2 days by immunohistochemistry; assay type: functional, organism-based
QGY-7703 [16] = test: Induction of apoptosis in human QGY7703 cells assessed as increase in apoptotic cell population at 4.0 uM incubated for 24 hrs by Annexin V-FITC/propidium iodide staining based flow cytometry relative to control; assay type: functional
Mus musculus [17] = test: Antiinflammatory activity in human HepG2 cells xenografted Balb/c nude mouse assessed as reduction in TNFalpha protein expression at 0.1 mg/kg, ip administered every 2 days for 20 days and measured every 2 days by immunohistochemistry; assay type: functional, organism-based
HepG2 [18] = test: Antitumor activity against human HepG2 cells xenografted in Balb/c nude mouse assessed as effect on tumor volume level at 0.1 mg/kg, ip administered every 2 days for 20 days and measured every 2 days; assay type: functional, organism-based
HepG2 [19] = test: Induction of apoptosis in human HepG2 cells assessed as increase in apoptotic cell population at 4.0 uM incubated for 24 hrs by Annexin V-FITC/propidium iodide staining based flow cytometry; assay type: functional
Mus musculus [20] = test: Antiinflammatory activity in human HepG2 cells xenografted Balb/c nude mouse assessed as reduction in TNFalpha protein expression at 1 mg/kg, ip administered every 2 days for 20 days and measured every 2 days by immunohistochemistry; assay type: functional, organism-based
[21] = biological target: Transcription factor p65 (Mus musculus) (UniProt Q04207); test: Inhibition of LPS-induced NFkappaB p65 nuclear translocation in mouse RAW264.7 cells at 4 uM incubated for 2 hrs after pre-incubation with LPS for 15 mins by DAPI staining-based immunofluorescence assay; assay type: cell-based
[22] = Toxicity in Balb/c nude mouse xenografted with human HepG2 cells assessed as increase in body weight at 0.1 to 10 mg/kg, ip administered every 2 days for 20 days and measured every 2 days; assay type: organism-based; details: in vivo
HepG2 [23] = test: Induction of apoptosis in human HepG2 cells assessed as increase in Bax expression up to 4 uM after 24 hrs by Western blot analysis; assay type: functional, cell-based
HepG2 [24] = test: Induction of apoptosis in human HepG2 cells assessed as reduction in Bcl-2 expression up to 4 uM after 24 hrs by Western blot analysis; assay type: functional, cell-based
L02 = test: Cytotoxicity against human LO2 cells assessed as reduction in cell viability incubated for 24 hrs by MTT assay; assay type: cell-based; details: L02, 24 h
HepG2 [25] = test: Cytotoxicity against human HepG2 cells assessed as reduction in cell viability incubated for 24 hrs by MTT assay; assay type: functional, cell-based
Mus musculus [26] = test: Antiinflammatory activity in human HepG2 cells xenografted Balb/c nude mouse assessed as reduction in TNFalpha protein expression at 10 mg/kg, ip administered every 2 days for 20 days and measured every 2 days by immunohistochemistry; assay type: functional, organism-based
QGY-7703 [27] = test: Induction of apoptosis in human QGY7703 cells assessed as increase in apoptotic cell population at 2.0 uM incubated for 24 hrs by Annexin V-FITC/propidium iodide staining based flow cytometry relative to control; assay type: functional

Chain of Transcription factor p65 (Mus musculus) (Q04207 whole entry): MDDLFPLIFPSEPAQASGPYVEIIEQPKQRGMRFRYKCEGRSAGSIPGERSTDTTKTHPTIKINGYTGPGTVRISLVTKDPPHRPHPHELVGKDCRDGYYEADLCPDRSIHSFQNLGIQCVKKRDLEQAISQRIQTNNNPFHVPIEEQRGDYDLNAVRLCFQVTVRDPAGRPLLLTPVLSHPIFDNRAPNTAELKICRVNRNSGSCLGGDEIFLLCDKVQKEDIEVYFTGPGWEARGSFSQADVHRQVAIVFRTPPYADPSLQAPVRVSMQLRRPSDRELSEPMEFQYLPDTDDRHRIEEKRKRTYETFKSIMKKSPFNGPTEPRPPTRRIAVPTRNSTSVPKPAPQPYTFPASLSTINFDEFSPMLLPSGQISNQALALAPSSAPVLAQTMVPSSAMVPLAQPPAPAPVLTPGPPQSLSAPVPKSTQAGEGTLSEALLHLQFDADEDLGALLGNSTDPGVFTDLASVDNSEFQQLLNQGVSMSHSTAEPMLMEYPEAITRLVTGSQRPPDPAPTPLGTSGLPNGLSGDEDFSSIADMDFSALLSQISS

Question: Which inhibition [1] does the source give for `O=C1/C(=C/c2cccnc2)CN(S(=O)(=O)c2ccc(C(F)(F)F)cc2)C/C1=C\c1ccccc1C(F)(F)F` here?
Answer: Dose-dependent effect

Question: What about the Activity (HepG2 [2]) of the same compound?
Answer: 40%

Question: What about the Activity (HepG2 [3]) of the same compound?
Answer: Active

Question: What about the Activity (RAW264.7) of the same compound?
Answer: Non-Toxic

Question: What about the Activity (HepG2 [4]) of the same compound?
Answer: Active

Question: What about the Activity (SMMC-7721 [5]) of the same compound?
Answer: Dose-dependent effect

Question: What about the Activity (QGY-7703 [6]) of the same compound?
Answer: Dose-dependent effect

Question: What about the pIC50 [7] of the same compound?
Answer: 4.80

Question: What about the Activity (HepG2 [8]) of the same compound?
Answer: <200 mm3

Question: And the Activity (HepG2 [9])?
Answer: Active

Question: And the Activity (SMMC-7721 [10])?
Answer: >70%

Question: What about the Activity (QGY-7703 [11]) of the same compound?
Answer: Dose-dependent effect

Question: What about the pIC50 (QGY-7703 [11]; QGY-7703, 24 h) of the same compound?
Answer: 5.82

Question: And the Activity (HepG2 [12])?
Answer: Active

Question: And the inhibition [13]?
Answer: Dose-dependent effect

Question: What about the Activity (HepG2 [14]) of the same compound?
Answer: >70%

Question: What about the Activity (HepG2 [15]) of the same compound?
Answer: inactive

Question: What about the Activity (QGY-7703 [16]) of the same compound?
Answer: >70%

Question: And the Activity (Mus musculus [17])?
Answer: inactive

Question: And the Activity (HepG2 [18])?
Answer: inactive

Question: What about the Activity (HepG2 [19]) of the same compound?
Answer: Dose-dependent effect

Question: What about the Activity (Mus musculus [20]) of the same compound?
Answer: Active

Question: What about the inhibition [21] of the same compound?
Answer: Active

Question: What about the Activity [22] of the same compound?
Answer: Non-Toxic

Question: And the Activity (HepG2 [23])?
Answer: Dose-dependent effect

Question: What about the Activity (HepG2 [24]) of the same compound?
Answer: Dose-dependent effect

Question: And the pIC50 (L02)?
Answer: 4.85

Question: What about the Activity (HepG2 [25]) of the same compound?
Answer: Dose-dependent effect

Question: What about the pIC50 (HepG2 [25]; HepG2, 24 h) of the same compound?
Answer: 5.77

Question: What about the Activity (Mus musculus [26]) of the same compound?
Answer: Active

Question: What about the Activity (QGY-7703 [27]) of the same compound?
Answer: 58%
